# Results: patent US20160143917A1, “COMPOSITIONS AND METHODS FOR MODULATING HIV ACTIVATION” (priority 2013, published 2016)
# “And” between values parts separate entries of the source, which are not always exact repeats. Equal values may be shown once.
# Key:
# [1] = system: latently HIV provirus infected Jurkat (T-cell) clone 2D10 cells carrying a GFP-expressing provirus; assay: Reactivation of latent HIV provirus (GFP expression) in 2D10 cells; format: cell-based, human; details: for Un-stimulated: drug alone, no TNFα or SAHA, drug concentration (Fulvestrant 2.5 μM, Y-134 5 μM, Endoxifen 5 μM, MPP 5 μM, Tamoxifen 10 μM, Gossypol 5 μM, PPT 100 μM, Stilbestrol 5 μM); for 250 nM SAHA drug: drug at row concentration plus sub-optimum 250 nM SAHA; for +100 pg/ml TNFα drug: drug plus sub-optimum 100 pg/ml TNFα; for +400 pg/ml TNFα drug: pre-treatment with agonist at row concentration plus 400 pg/ml TNFα; for 2 μM SAHA drug: pre-treatment with agonist at row concentration plus 2 μM SAHA
# From the text: Still other ESR-1 antagonists can be identified and screened for potential induction of latent HIV activation by using cell based assays described in Examples 1 and 2. For example to determine whether a composition or potential ESR-1 antagonist can induce HIV-1 provirus re-activation in latently infected primary T-cells (Th17), the ESR-1 antagonist can be administered to latently HIV provirus infected Jurkat (T-cell) clone 2D10 cells carrying a GFP-expressing provirus. The level of GFP expression can then be measured to determine activation. In another example, the ESR-1 antagonist can be administered to the latently infected primary T-cells (Th17) and phosphorylation of serine 175 of CDK9 can be measured by flow cytometry analysis. Along with CDK9 pSer175, expression of viral protein Nef can also measured.
# FIG. 2 illustrates the ESR1 antagonist Fulvestrant weakly stimulates 2D10 reactivation and sensitizes the cells to reactivation by sub-optimal concentrations of TNF-α. A. Unstimulated cells showing the low basal activation levels of approximately 2%. […] C. Activation of cells with 2.5 μM Fulvestrant.
# To further validate involvement of ESR-1 in latency maintenance program, we have examined a series of antagonists and agonist as represented in Table 2 on 2D10. In all the cases it was observed that blocking of ESR-1 by antagonist either constitutively re-activate or sensitizes the pro-virus to sub-optimum dose of TNFα (100 pg/ml) and SAHA (250 nM).
# [2] = system: CHME5/HIV cells, a latently infected Fetal Microglia Cell line; assay: Reactivation of latent HIV provirus (GFP expression) in microglial cells; format: cell-based
# Protocol: FIGS. 5(A-D) illustrate histograms showing GFP expression in CHME5/HIV cells, a latently infected Fetal Microglia Cell line carrying a GFP-expressing provirus, that are: (A) unstimulated; (B) administered a suboptimal dose of TNFα (10 ng/ml); (C) administered […] Fulvestrant; or (D) pre-treated with Fulvestrant and administered a suboptimal dose of TNFα.
# A. Unstimulated CHME5/HIV cells, a latently infected Fetal Microglia Cell line. Basal activation levels were 2.31%. B. Reactivation of CHME5/HIV cells with a suboptimal dose of TNFα (10 ng/ml) induced 13.96% of the proviruses. C. […] These observations indicate that pro-virus reactivation by modulating the ESR-1 is specific for T-cell.
# [3] = system: Latently HIV-1 infected Th17 primary cells; assay: Reactivation of latent provirus in primary Th17 cells, HIV Nef protein expression; format: cell-based; details: single agent; untreated cells 2.54%
# From the text: FIG. 3 illustrates latently infected primary T-cells are reactivated by the ESR1 antagonist, Fulvestrant (ICI.182780). […] B. Stimulation of the latently infected cells through the T-cell receptor using antibodies to CD3/CD28 re-activated 60.82% of the cells in the population. C. […] Method: Naive T-cells from healthy donors were activated using anti-CD3/[…] antibodies and polarized in the direction of primary Th-17 cells using a cocktail of cytokines. The exponentially growing cells were infected with HIV-1 virus containing d2EGFP fused to CD8a for surface expression of the reporter gene. The CD8a positive cells were purified using CD8a antibody conjugated magnetic beads. The HIV-1 infected cells were allowed to become quiescent by culturing in media containing minimal levels of IL2.
# [4] = system: latently infected primary T-cells (Th17); assay: CDK9 pSer175 and Nef by flow cytometry in latently infected primary T-cells; format: cell-based
# Protocol: At the time of HIV-1 provirus re-activation one of the key marker is phosphorylation of serine 175 amino acid residue of CDK9 (CDK9 pSer175). To determine the status of HIV-1 provirus re-activation in latently infected primary T-cells (Th17) by ESR-1 antagonist Tamoxifen, phosphorylation of serine 175 of CDK9 was measured by flow cytometry analysis. Along with CDK9 pSer175, expression of viral protein Nef was also measured. […] Keeping that in mind, latently infected primary T-cell was treated with tamoxifen and SAHA alone or in combination where sub-optimum dose of (250 nM) was used (FIGS. 11 B, D, E). […] Therefore re-activation of latent provirus in Gossypol and/or SAHA treated primary T-cell was also examined (FIGS. 11 C-D).
compound,measurement,setting,value
CC/C(=C(\c1ccc(O)cc1)c1ccc(OCCNC)cc1)c1ccccc1 [Endoxifen],Un-stimulated,[1],9.70%
same,250 nM SAHA drug,[1],26.63%
same,+100 pg/ml TNFα drug,[1],29.31%
C[C@]12CC[C@@H]3c4ccc(O)cc4C[C@@H](CCCCCCCCC[S+]([O-])CCCC(F)(F)C(F)(F)F)[C@H]3[C@@H]1CC[C@@H]2O (stereo partly shown) [Fulvestrant],stimulation of CHME5/HIV cells (GFP),[2]; 2.5 mM Fulvestrant alone,did not stimulated CHME5/HIV cells beyond basal levels
same,sensitization towards TNFα stimulation (GFP),"[2]; pre-treatment with Fulvestrant, then suboptimal TNFα (10 ng/ml)",did not sensitize the latent population towards TNFα stimulation
same,"latent proviruses/cells re-activated, measured by expression of the HIV Nef protein",[3],25.27%
same,reactivation of latent provirus (GFP),[1]; 2.5 μM Fulvestrant alone,small but significant reactivation
same,GFP levels,[1]; 50 μM Fulvestrant alone,8.05%
same,Un-stimulated,[1],2.68%
same,250 nM SAHA drug,[1],17.78%
same,+100 pg/ml TNFα drug,[1],41.01%
same,reactivation of latent population (GFP),"[1]; one hour pre-treatment with Fulvestrant, then 100 pg/ml TNFα",41.01%
same,reactivation of pro-virus (GFP),"[1]; pre-treatment with Fulvestrant (50 μM) for one hour, then 250 nM SAHA",18.80%
Cc1cc2c(C(C)C)c(O)c(O)c(C=O)c2c(O)c1-c1c(C)cc2c(C(C)C)c(O)c(O)c(C=O)c2c1O [Gossypol],pro-virus re-activation (GFP),[2]; Gossypol alone,1.60%
same,re-activation of pro-virus (GFP),[2]; Gossypol combined with 10 ng/ml TNFα (sub-optimum),10.24%
same,proviral re-activation (GFP),[1]; 5 μM Gossypol alone,30.58%
same,re-activation (GFP),[1]; 5 μM Gossypol combined with 100 pg/ml TNFα (sub-optimum),60.15%
same,Un-stimulated,[1],30.58%
same,+100 pg/ml TNFα drug,[1],60.15%
Cc1c(-c2ccc(O)cc2)nn(-c2ccc(O)cc2)c1-c1ccc(OCCN2CCCCC2)cc1 [MPP],Un-stimulated,[1],14.49%
same,250 nM SAHA drug,[1],31.14%
same,+100 pg/ml TNFα drug,[1],39.60%
"CCCc1c(-c2ccc(O)cc2)nn(-c2ccc(O)cc2)c1-c1ccc(O)cc1 [PPT, 4,4′,4″-(4-Propyl-[1H]-pyrazole-1,3,5-triyl)trisphenol]",reactivation of latently infected cells (GFP),[1]; 100 μM PPT alone,not reactivated
same,Un-stimulated,[1],3.57%
same,activation of the cells (GFP),"[1]; pre-treatment with PPT, then SAHA (1 μM)",8.77%
same,+400 pg/ml TNFα drug,[1],13.41%
same,2 μM SAHA drug,[1],6.76%
same,reactivation induced by TNFα (GFP),"[1]; pretreatment with PPT for one hour, then 400 pg/ml TNFα",13.41%
"O=C(CCCCCCC(=O)Nc1ccccc1)NO [SAHA, suberoylanilide hydroxamic acid]",cells induced (GFP),[1]; 250 nM SAHA alone (sub-optimum),5.25%
same,re-activation of the population (GFP),[1]; 1 μM SAHA alone,65.87%
same,250 nM SAHA,"[1]; Control (2D10), 250 nM SAHA alone, no ESR-1 drug",14.34%
same,2 μM SAHA,"[1]; Control (2D10), 2 μM SAHA alone, no ESR-1 drug",65.43% and 71.83%
CC/C(=C(/CC)c1ccc(O)cc1)c1ccc(O)cc1 [Stilbestrol],Un-stimulated,[1],6.20%
same,+400 pg/ml TNFα drug,[1],33.70%
same,2 μM SAHA drug,[1],4.34%
same,effect of agonist pre-treatment on provirus re-activation,"[1]; pre-treatment, optimum dose of TNFα (400 pg/ml) and SAHA (2 μM)",block the re-activation of latent pro-virus
CC/C(=C(\c1ccccc1)c1ccc(OCCN(C)C)cc1)c1ccccc1 [Tamoxifen],re-activation of latent provirus (CDK9 pSer175 and Nef expression),[4]; drug alone,failed to re-activate latent provirus
same,re-activation of latent provirus (CDK9 pSer175 and Nef expression),[4]; drug combined with sub-optimum SAHA (250 nM),elevated expression of both CDK9 pSer175 and Nef
same,Un-stimulated,[1],12.09%
same,250 nM SAHA drug,[1],22.50%
same,+100 pg/ml TNFα drug,[1],33.03%
C[C@]12CC[C@@H]3c4ccc(O)cc4CC[C@H]3[C@@H]1CC[C@@H]2O [β-estradiol],stimulation of latent HIV proviruses (GFP),"[1]; estrogen-depleted media, 2 ng/ml β-estradiol alone",does not stimulate latent HIV proviruses
same,responsiveness to TNFα (GFP),"[1]; estrogen-depleted media, 2 ng/ml β-estradiol plus 400 pg/ml TNFα",did not enhance responsiveness
TNFα,proviruses induced (GFP),"[2]; 10 ng/ml TNFα alone (suboptimal), basal 2.31%",13.96%
same,re-activation of latent provirus (GFP),[1]; 100 pg/ml TNFα alone (sub-optimal),15.95%
same,proviral re-activation (GFP),[1]; 400 pg/ml TNFα alone,70.88%
same,+100 pg/ml TNFα,"[1]; Control (2D10), 100 pg/ml TNFα alone, no ESR-1 drug",16.15%
same,400 pg/ml TNFα,"[1]; Control (2D10), 400 pg/ml TNFα alone, no ESR-1 drug",70.88% and 88.12%
same,proviruses stimulated (GFP),"[1]; phenol-red free media, 10% charcoal-stripped FBS (estrogen-depleted), 400 pg/ml TNFα alone",79.59%
